Experimental data reported in patent US8765736B2, “Benzenesulfonamide compounds and the use thereof” (Purdue Pharma L.P., priority 2007, dated 2014).

Experiments:
[1] = biological target: T1, N-type calcium channel (NTCC) (Homo sapiens, UniProt Q00975); test: FLIPR calcium mobilization assay for N-type calcium channel; format: cell-based; conditions: calcium mobilization in vitro assay; differentiated IMR32 cells, 5 μM nitrendipine, 90 mM KCl
T1 construct: endogenous in cells; host or cells: IMR32 cells (ATCC), differentiated with dibutyryl cAMP and bromodeoxyuridine
Experimental: Cell maintenance and differentiation. Unless noted otherwise, cell culture reagents were purchased from Mediatech of Herndon, Md. IMR32 cells (American Type Culture Collection, ATCC, Manassas, Va.) were routinely cultured in growth medium consisting of minimum essential medium containing 10% fetal bovine serum (FBS, Hyclone, Logan, Utah), 100 U/mL penicillin, 100 μg/mL streptomycin, 2 mM L-glutamine, 1 mM sodium pyruvate, and 1×MEM non-essential amino acids. 80-90% confluent flasks of cells were differentiated using the following differentiation medium: Growth medium plus 1 mM dibutyryl cyclic AMP (Sigma, St. Louis, Mo.), and 2.5 μM bromodeoxyuridine (Sigma). Cells were differentiated for 8 days by replacing differentiation medium every 2-3 days.
FLIPR Calcium Mobilization Assay for N-type Calcium Channel. One day prior to performing this assay, differentiated IMR32 cells were treated with 1× CellStripper, and seeded on poly-D-lysine-coated 96-well clear-bottom black plates (Becton Dickinson, Franklin Lakes, N.J.) at 200,000 cells/well. On the day of the assay, the cell plates were washed with IMR32 buffer (127 mM NaCl, 1 mM KCl, 2 mM MgCl2, 700 μM NaH2PO4, 5 mM CaCl2, 5 mM NaHCO3, 8 mM HEPES, 10 mM glucose, pH 7.4), then pre-stimulated with KCl and loaded as follows: 0.05 mL of IMR32 buffer, 0.05 mL of each compound tested diluted in IMR32 buffer containing 20 μM nitrendipine (Sigma), and 0.1 mL KCl dissolved in IMR32 buffer, plus Fluo-4 were added (3 μM final concentration, Molecular Probes, Eugene, Oreg.). Final test compound concentrations ranged from about 846 pM to about 17 μM, final nitrendipine concentration was 5 μM, and final KCl concentration was 90 mM. After 1 hour, the cells were washed twice with 0.05 mL of each compound tested in nitrendipine-containing IMR32 buffer (no KCl or Fluo-4), and then replaced with 0.1 mL of each compound tested in nitrendipine-containing IMR32 buffer. Plates were then transferred to a Fluorimetric Imaging Plate Reader (FLIPR^96, Molecular Devices, Inc., Sunnyvale, Calif.) for assay. The FLIPR measured basal Fluo-4 fluorescence for 315 seconds (i.e., 5 minutes and 15 seconds), then added 0.1 mL KCl agonist dissolved in IMR32 buffer and measured fluorescence for another 45 seconds. Final test compound concentrations on the cells after FLIPR read ranged from about 846 pM to about 17 μM, final nitrendipine concentration was 5 μM, and final KCl concentration was 90 mM. Data were collected over the entire time course and analyzed using Excel, Graph Pad Prism (version 3.02, Graph Pad, San Diego, Calif.), or an in-house non-linear regression analysis software.

[2] = biological target: T2, recombinant rat L-type calcium channel (LTCC) subunits (α1c, α2δ, and β1) (Rattus norvegicus, UniProt P22002); test: FLIPR calcium mobilization assay for L-type calcium channel; format: cell-based; conditions: calcium mobilization in vitro assay; HEK293 cells stably expressing rat LTCC subunits, 90 mM KCl
T2 construct: expressed in transfected cells; α1c in pcDNA6.2DEST, β1 in pcDNA3.2DEST, α2δ in pcDNA3.1-Zeo
Experimental: Recombinant human embryonal kidney cells (HEK293, ATCC) stably transfected with either N-type calcium channel (NTCC) subunits (α1b (SEQ ID NOs: 13 to 15), α2δ (SEQ ID Nos: 16, 17), and β3 (SEQ ID NOs:18 to 20)) or L-type calcium channel (LTCC) subunits (α1c (SEQ ID NOs:21, 22), α2δ, and β1 (SEQ ID NOs:23 to 25)) were routinely cultured in growth medium consisting of Dulbecco's Modified Eagles Medium containing 10% FBS, 100 U/mL penicillin, 100 μg/mL streptomycin, 4 mM L-glutamine, 500 μg/mL geneticin (G418), 20 μg/mL Blasticidin S (InVivogen, San Diego, Calif.) and 500 μg/mL zeocin (InVivogen).
FLIPR Calcium Mobilization Assay for L-type Calcium Channel. One day prior to performing this assay, HEK293 cells stably expressing recombinant rat L-type calcium channel (LTCC) subunits (α1c, α2δ, and β1) were trypsinized, then seeded on poly-D-lysine-coated 96-well clear-bottom black plates (Becton Dickinson, Franklin Lakes, N.J.) at 75,000 cells/well. On the day of the assay, the plates were washed with LTCC wash buffer (127 mM NaCl, 2 mM MgCl2, 700 μM NaH2PO4, 5 mM CaCl2, 5 mM NaHCO3, 8 mM HEPES, 10 mM glucose, pH 7.4), then loaded with 0.1 mL of LTCC wash buffer containing Fluo-4 (3 μM final concentration, Molecular Probes, Eugene, Oreg.). After 1 hour, the cells were washed with 0.1 mL LTCC wash buffer and resuspended in 0.05 mL LTCC assay buffer (same composition as LTCC wash buffer). Plates were then transferred to a FLIPR^96 for assay. The FLIPR measured basal Fluo-4 fluorescence for 15 seconds, then added 0.05 mL of each compound tested diluted in LTCC assay buffer at final concentrations ranging from about 846 pM to about […]. Fluo-4 fluorescence was then measured for 5 minutes. 0.1 mL KCl agonist dissolved in LTCC assay buffer was then added to the cells to produce a final concentration of 90 mM KCl, and fluorescence was measured for another 45 seconds. Data were collected over the entire time course and analyzed using Excel, Graph Pad Prism, or an in-house regression analysis software.
L-type Recombinant Cell Line Development. L-type calcium channel expressing HEK-293 cells were created in two stages. Stage 1 was created as follows. The rat α1c, and β1 cDNA expression constructs (2.5 μg each) were co-transfected into human embryonic kidney (HEK-293) cells by Lipofectamine Plus reagent (Invitrogen), as per manufacturer's instructions. 24 hours later, cells were split in limiting dilution into multiple 96-well plates in selection media containing 20 μg/mL blasticidin and 500 μg/mL geneticin, and incubated for 3 weeks at 37° C., 5% CO2, 95% humidity. Plates containing ≦1 clone per well were cultured until wells positive for single clones were confluent. Individual clones were then arrayed into columns of a destination 96-well plate, and partly split into 6-well plates for culture maintenance. Array plates were washed once with LTCC wash (or assay) buffer and cells loaded for 1 hour with 0.1 mL of LTCC buffer containing Fluo-4 (3 μM final concentration, Molecular Probes). Then they were washed twice with 0.1 mL of LTCC buffer, and replaced with 0.1 mL LTCC buffer. Plates were then transferred to a FLIPR^96 for assay. The FLIPR measured basal Fluo-4 fluorescence for 315 seconds, then added 0.1 mL KCl agonist dissolved in LTCC buffer and measured fluorescence for another 45 seconds. Final KCl concentration was 90 mM. Data were collected over the entire time course and analyzed using Excel, Graph Pad Prism, or Activity Base software. The clone with the greatest signal-to-noise ratio, best stability of response with passage number, and best adhesion to PDL precoated plates (Becton Dickinson) was expanded, characterized and used for stage 2 cell line development.
Stage 2 of L-type cell line development was carried out as follows. The rat α2δ cDNA expression construct (5 μg each) was transfected into the stage 1 L-type clonal cell line by Lipofectamine Plus reagent (Invitrogen), as per manufacturer's instructions. […]

T2 sequence (P22002 whole entry): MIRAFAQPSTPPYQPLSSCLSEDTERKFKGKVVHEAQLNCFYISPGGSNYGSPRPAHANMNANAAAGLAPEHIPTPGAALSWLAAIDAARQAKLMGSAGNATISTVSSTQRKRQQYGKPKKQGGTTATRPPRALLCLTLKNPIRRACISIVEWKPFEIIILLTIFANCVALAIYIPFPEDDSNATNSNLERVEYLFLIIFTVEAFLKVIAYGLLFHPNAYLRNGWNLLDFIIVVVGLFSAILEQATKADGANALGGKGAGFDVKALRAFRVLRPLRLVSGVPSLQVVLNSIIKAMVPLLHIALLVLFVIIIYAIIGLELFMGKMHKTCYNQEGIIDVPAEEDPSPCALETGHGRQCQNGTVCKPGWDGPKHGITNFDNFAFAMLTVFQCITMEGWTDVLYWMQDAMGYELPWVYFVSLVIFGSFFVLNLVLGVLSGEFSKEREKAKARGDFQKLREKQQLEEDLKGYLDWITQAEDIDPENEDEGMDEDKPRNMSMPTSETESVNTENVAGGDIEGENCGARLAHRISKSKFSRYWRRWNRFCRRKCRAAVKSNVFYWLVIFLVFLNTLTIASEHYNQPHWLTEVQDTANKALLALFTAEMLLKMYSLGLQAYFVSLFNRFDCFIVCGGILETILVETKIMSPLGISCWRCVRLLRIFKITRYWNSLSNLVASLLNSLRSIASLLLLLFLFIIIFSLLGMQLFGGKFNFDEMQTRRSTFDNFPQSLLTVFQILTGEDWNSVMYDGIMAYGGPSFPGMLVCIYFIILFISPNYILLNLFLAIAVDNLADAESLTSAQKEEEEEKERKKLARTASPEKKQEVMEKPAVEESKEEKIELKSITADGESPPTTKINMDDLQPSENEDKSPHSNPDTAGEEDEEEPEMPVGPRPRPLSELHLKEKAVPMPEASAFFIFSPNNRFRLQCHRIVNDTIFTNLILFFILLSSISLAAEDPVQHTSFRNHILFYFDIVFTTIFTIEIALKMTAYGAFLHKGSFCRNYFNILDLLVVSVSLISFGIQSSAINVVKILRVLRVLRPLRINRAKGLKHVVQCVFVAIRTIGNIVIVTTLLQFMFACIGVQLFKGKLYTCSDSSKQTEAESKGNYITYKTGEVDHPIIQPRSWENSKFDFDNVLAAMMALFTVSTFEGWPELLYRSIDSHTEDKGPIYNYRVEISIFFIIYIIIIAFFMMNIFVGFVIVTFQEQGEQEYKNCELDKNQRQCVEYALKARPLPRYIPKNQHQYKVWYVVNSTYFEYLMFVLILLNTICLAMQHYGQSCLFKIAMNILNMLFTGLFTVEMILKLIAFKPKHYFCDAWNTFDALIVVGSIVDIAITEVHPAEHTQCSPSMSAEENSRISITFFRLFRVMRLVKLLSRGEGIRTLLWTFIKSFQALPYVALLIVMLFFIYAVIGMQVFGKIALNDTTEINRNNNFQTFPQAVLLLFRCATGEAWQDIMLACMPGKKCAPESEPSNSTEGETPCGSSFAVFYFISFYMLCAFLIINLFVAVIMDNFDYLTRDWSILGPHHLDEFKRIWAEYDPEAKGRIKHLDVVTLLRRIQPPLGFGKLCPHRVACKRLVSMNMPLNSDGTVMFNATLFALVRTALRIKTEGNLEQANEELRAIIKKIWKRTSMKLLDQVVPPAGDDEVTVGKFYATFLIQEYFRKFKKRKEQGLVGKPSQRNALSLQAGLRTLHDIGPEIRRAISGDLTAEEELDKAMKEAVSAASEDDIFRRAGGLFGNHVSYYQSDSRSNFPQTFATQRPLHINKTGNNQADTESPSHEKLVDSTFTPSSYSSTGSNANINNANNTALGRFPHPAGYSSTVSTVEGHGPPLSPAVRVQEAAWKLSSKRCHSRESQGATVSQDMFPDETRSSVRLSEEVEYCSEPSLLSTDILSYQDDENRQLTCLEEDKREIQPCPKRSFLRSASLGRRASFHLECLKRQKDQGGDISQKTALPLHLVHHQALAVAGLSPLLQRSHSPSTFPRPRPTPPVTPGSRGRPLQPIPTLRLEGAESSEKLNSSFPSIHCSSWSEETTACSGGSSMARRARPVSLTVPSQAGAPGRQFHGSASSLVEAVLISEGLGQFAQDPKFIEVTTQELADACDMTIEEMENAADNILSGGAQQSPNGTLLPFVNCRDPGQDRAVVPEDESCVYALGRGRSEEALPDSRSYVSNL
T2 sequence (P54290 25-944 partner): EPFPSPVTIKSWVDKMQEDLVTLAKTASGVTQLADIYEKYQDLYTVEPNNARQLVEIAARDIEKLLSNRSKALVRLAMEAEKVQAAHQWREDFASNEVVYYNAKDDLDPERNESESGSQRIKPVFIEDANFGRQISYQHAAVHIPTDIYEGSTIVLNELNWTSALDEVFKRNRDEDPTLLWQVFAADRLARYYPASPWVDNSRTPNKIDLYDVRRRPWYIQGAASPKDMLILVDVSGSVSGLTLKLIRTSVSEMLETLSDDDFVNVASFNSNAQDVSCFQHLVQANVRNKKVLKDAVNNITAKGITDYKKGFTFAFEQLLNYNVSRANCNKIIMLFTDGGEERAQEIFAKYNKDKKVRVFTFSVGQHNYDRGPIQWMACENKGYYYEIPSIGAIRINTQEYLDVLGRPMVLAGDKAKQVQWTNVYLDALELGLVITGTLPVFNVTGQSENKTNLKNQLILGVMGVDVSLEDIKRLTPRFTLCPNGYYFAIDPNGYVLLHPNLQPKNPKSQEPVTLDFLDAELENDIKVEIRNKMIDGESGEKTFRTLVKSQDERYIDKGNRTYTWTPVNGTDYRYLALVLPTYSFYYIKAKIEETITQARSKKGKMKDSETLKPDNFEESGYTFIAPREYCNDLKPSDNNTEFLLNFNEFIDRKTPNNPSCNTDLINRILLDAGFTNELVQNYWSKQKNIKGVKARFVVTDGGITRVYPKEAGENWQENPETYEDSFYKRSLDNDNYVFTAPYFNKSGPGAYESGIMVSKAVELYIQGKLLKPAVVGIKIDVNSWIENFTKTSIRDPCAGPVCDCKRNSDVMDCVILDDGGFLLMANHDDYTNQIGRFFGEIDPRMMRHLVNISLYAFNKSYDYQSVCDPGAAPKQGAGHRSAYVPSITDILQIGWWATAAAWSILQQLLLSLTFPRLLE
T2 sequence (P54290 945-1091 partner): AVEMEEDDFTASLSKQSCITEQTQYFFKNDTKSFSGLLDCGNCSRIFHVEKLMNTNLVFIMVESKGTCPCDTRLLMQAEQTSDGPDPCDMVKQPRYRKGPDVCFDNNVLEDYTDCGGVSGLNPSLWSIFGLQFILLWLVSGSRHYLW
T2 sequence (P54283 whole entry partner): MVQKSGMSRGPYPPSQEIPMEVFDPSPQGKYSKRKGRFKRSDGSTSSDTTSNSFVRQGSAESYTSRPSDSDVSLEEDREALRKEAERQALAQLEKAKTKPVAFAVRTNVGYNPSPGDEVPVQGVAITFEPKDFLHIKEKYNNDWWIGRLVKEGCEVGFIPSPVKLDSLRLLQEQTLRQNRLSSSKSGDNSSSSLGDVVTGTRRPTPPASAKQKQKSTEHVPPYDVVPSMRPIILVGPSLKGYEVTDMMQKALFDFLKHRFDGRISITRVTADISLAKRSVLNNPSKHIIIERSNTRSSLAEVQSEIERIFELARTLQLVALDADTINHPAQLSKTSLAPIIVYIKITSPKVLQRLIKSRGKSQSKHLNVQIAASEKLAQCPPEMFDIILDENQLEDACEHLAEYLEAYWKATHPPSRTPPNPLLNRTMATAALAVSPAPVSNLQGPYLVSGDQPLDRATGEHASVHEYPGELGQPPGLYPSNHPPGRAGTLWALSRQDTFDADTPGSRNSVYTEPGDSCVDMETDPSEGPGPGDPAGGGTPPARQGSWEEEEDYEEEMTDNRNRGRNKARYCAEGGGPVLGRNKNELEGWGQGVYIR

Question: What does the source list for `CC(CC(=O)NC(C)(C)C)N1CCC(N(C(C)C)S(=O)(=O)c2cccc(C(F)(F)F)c2)CC1` (stereo not drawn) [Compound 25, 3-{4-[Isopropyl-(3-trifluoromethyl-benzenesulfonyl)amino]piperidin-1-yl}-N-tert-butyl-butyramide]?
Answer: IC50 [1]: 240 nM; IC50 [2]: 8450 nM

Question: Which results are given for `CCOC(=O)C(C)(C)N1CCC(N(C(C)C)S(=O)(=O)c2cccc(C(F)(F)F)c2)CC1` [Compound 8b, 2-{4-[Isopropyl-(3-trifluoromethyl-benzenesulfonyl)amino]piperidin-1-yl}-2-methylpropionic acid ethyl ester]?
Answer: IC50 [1]: 620 nM; IC50 [2]: > 20000 nM

Question: Which IC50 [1] does the source give for `CC(C)N(C1CCN(CC(=O)Nc2ccc3c(c2)OC(F)(F)O3)CC1)S(=O)(=O)c1cccc(C(F)(F)F)c1` [Compound 31f, N-(2,2-Difluoro-benzo[1,3]dioxol-5-yl)-2-{4-[isopropyl-(3-trifluoromethyl-benzenesulfonyl)-amino]-piperidin-1-yl}-acetamide] here?
Answer: 580 nM

Question: What about the IC50 [2] of the same molecule?
Answer: > 20000 nM

Question: `CC(C)N(C1CCN(CC(=O)NC2CCCCCC2)CC1)S(=O)(=O)c1cccc(C(F)(F)F)c1` [Compound 31c, N-Cycloheptyl-2-{4-[isopropyl-(3-trifluoromethyl-benzenesulfonyl)-amino]-piperidin-1-yl}-acetamide] was tested. Which IC50 [1] did it give?
Answer: 260 nM

Question: And the IC50 [2]?
Answer: 7850 nM

Question: What does the source list for `CC(C)N(C1CCN(CC(=O)NC2CC3CCC2C3)CC1)S(=O)(=O)c1cccc(C(F)(F)F)c1` (stereo not drawn) [Compound 31d, N-Bicyclo[2.2.1]hept-2-yl-2-{4-[isopropyl-(3-trifluoromethyl-benzenesulfonyl)-amino]-piperidin-1-yl}-acetamide]?
Answer: IC50 [1]: 340 nM; IC50 [2]: 4120 nM

Question: Which IC50 [1] does the source give for `CC(C)N(C1CCN(CC(=O)N2CCCCCC2)CC1)S(=O)(=O)c1cccc(C(F)(F)F)c1` [Compound 31a, N-[1-(2-Azepan-1-yl-2-oxo-ethyl)-piperidin-4-yl]-N-isopropyl-3-trifluoromethyl-benzenesulfonamide] here?
Answer: 300 nM

Question: What about the IC50 [2] of the same molecule?
Answer: > 20000 nM
